{
  "source": "patent US10294272B2",
  "about": "“Peptides with antagonistic activities against natural CXCR4” (Pharis Biotec GmbH, priority 2013, dated 2019)",
  "key": {"X4 HIV-1 strains": {"test_system": "X4 HIV-1 strains", "experimental": "(§1) Antiviral screening was performed using the X4 HIV-1 NL4-3 molecular clone.\n(§2) HIV-1, HIV-2 and SIV molecular clones differing in coreceptor tropism were generated by transient transfection of 293T cells with proviral DNA by the calcium phosphate method (CalPhos™ Mammalian Transfection Kit, Clon-tech). After overnight incubation, the transfection mixture was replaced by DMEM medium supplemented with 10% FCS, and virus stocks were harvested 48 hrs post-transfection. Subsequently, the culture supernatant was centrifuged for 5 min at 3000 rpm to remove cell debris. The resulting virus stock was quantified by p24 (HIV) or p27 (SIV) antigen ELISA. Virus stocks were either used immediately or stored in aliquots at −80° C.\n(§3) TZM-bl reporter cells containing the LacZ reporter gene under the control of the HIV-1 promoter were seeded in 96-well F-bottom microtiter plates (Greiner Bio-One). On the following day, the cells were preincubated with various dilutions of the peptide of SEQ ID NO 16 or its derivatives for 1 hour and subsequently infected with HIV-1, HIV-2, and SIV. Infection rates were determined after 2 days using the one-step Tropix Gal-Screen Kit, as recommended by the manufacturer."}, "X4 tropic HIV-1 NL4-3": {"test_system": "X4 tropic HIV-1 NL4-3", "conditions": "blocking X4 tropic HIV-1 NL4-3 infection", "experimental": "as §1, §2, §3"}, "[1]": {"test_system": "wild-type (wt) HIV-1 NL4-3 in PBMCs", "test": "PBMC infection assay", "type": "cell-based", "conditions": "concentrations ≥4 μg/ml", "experimental": "Peripheral blood mononuclear cells were isolated from Buffy coat derived from the DRK-Blutspendedienst Baden-Württemberg-Hessen using Ficoll density centrifugation. 1×10^6 PBMC per ml were stimulated with 1 μg/ml phytohemagglutinine (PHA, Oxoid, #3085280) and 10 ng/ml Interleukin 2 (IL-2, Strathmann, #9511192) for three days. Thereafter, cells were pelleted and resuspended in IL-2 containing medium. 2×10^5 PBMC were seeded in 96 well F-bottom microtiter plates, peptides were added and cells were infected with […] p24 antigen of X4 or R5 tropic viruses. Supernatants containing progeny virus were taken at every 2-3 days post infection. Virus production was measured by p24 antigen ELISA (NIH AIDS reagent program). The mean p24 antigen values (ng/ml) were derived from triplicate infections±standard deviation."}, "[2]": {"test_system": "TZM-bl cells or prestimulated PBMCs", "experimental": "To assess cytotoxic effects TZM-bl cells or prestimulated PBMCs were incubated with increasing concentrations of peptides. Cell viability was determined using the CellTiter-Glo Luminescent Cell Viability Assay (PROMEGA, G7571) as recommended by the manufacturer. Values were derived from triplicate measurements. Vitality rates were calculated relative to ATP levels in PBS (no peptide) containing cells (100%). Data were recorded using a luminometer 10 minutes after adding reagent."}, "CXCR4": {"biological_target": "T1, CXCR4 (Homo sapiens, UniProt P61073)", "T1 construct": "expressed in transfected cells", "T1 sequence (P61073 whole entry)": "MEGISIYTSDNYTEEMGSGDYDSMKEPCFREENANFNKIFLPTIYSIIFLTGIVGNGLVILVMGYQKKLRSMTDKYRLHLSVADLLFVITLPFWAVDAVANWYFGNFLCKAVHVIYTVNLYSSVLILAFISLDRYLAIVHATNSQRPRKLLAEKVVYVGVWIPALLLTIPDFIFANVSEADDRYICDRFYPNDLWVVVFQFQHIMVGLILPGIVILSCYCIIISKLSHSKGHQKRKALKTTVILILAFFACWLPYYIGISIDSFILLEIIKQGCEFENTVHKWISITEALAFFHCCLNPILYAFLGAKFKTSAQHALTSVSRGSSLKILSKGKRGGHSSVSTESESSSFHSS", "test": "Competition with CXCL12 binding to CXCR4 (real-time fluorescence, eGFP-CXCR4 cells)", "conditions": "read-out: dissociation constant (DC50), competition with CXCL12 binding to CXCR4", "experimental": "Anti-human CXCR4 (clone 12G5, IgG2a) or anti-human CXCR7 (clone 9C4) monoclonal antibodies (mAbs) were purchased from R&D Systems (Minneapolis, Minn.). […] The human chemokines CXCL12 and CXCL12-TexasRed were synthesized as described (Valenzuela-Fernandez, et al. 2001). The human chemokine CXCL11 was purchased from Clinisciences SAS (France).\nExperiments were performed using cells stably expressing eGFP-CXCR4, suspended in HEPES-bovine serum albumin buffer (10 mM HEPES, 137.5 mM NaCl, 1.25 mM MgCl2, 1.25 mM CaCl2, 6 mM KCl, 10 mM glucose, 0.4 mM NaH2PO4, 0.1% bovine serum albumin (w/v), pH 7.4) (typically at 10^6 cells/mL). Time-based recordings of the fluorescence emitted at 510 nm (excitation at 470 nm) were performed at 21° C. using a spectrofluorimeter and sampled every 0.3 s. Fluorescence binding measurements were initiated by adding at 30 s 100 nM of CXCL12-TR to the 1 mL cell suspension. For competition experiments, EGFP-CXCR4 expressing cells were preincubated for 10 min in the absence or presence of various concentrations of unlabelled drugs. Then, CXCL12-TR (100 nM) was added and fluorescence was recorded until equilibrium was reached (300 s). Data were analyzed using Kaleidagraph 3.08 software (Synergy Software, Reading, Pa., USA)."}, "CD34+ human stem cells": {"test_system": "CD34+ human stem cells", "test": "CXCL12-induced migration of CD34+ human stem cells", "type": "cell-based", "experimental": "Peripheral hematopoietic stem (PHS) cells isolated by apheresis of Granulo-cyte colony-stimulating factor (G-CSF) treated individuals were obtained from the Institute of Transfusion Medicine, University Hospital Ulm). Frozen cells were carefully thawed in 1/10 diluted 10% ACD-A buffer (provided by the Institute of Transfusion Medicine) in PBS. 1×10^5/200 μl PHS cells were placed into the upper chamber of transwell plates. Then, 10 nM CXCL12 and/or various concentrations of the peptide of SEQ ID NO 16 or its derivatives in 600 μl culture medium were placed to each well. After 3 h, the chemotaxis was measured using the CellTiter-Glo Luminescent Cell Viability Assay as described above. All values represent mean numbers of migrated cells relative to CXCL12 only treated cells from a triplicate experiment±SD."}, "DU145 cells": {"test_system": "DU145 cells", "test": "Cancer cell invasion assay", "type": "cell-based", "experimental": "Cell invasion of cancer cells was assayed using a Biocoat Matrigel invasion chamber (BD BioCoat™ Matrigel™ Invasion Chamber) as recommended by the manufacturer. 5×10^4 DU145 cells (ATCC) were suspended in 300 μl serum-free RPMI (Gibco) containing 0.1% BSA (KPL) and then added to the upper chamber. 700 μl serum-free medium with or without 100 nM CXCL12 and various concentrations of the peptide of SEQ ID NO 16 were added to each lower chamber. The chambers were incubated for 24 h at 37° C. in a humid atmosphere of 5% CO2/95% air. The non-invading cells were removed from the upper surface of the membrane by scrubbing. Invaded cells toward the bottom of membrane were quantified using the CellTiter-Glo® Luminescent Cell Viability Assay kit as described above."}, "Candida albicans": {"test_system": "Candida albicans", "test": "Antifungal activity against Candida", "type": "cell-based"}},
  "note": "No end group written: not given here.",
  "data": [
    {"sequence": "LVRYTKKVPQVSTPTL [Derivative 408-423, LVRYTKKVPQVSTPTL]", "values": [
      {"measurement": "mean 50% inhibitory concentration (IC50), infection by X4 HIV-1 strains", "setting": "X4 HIV-1 strains; mean over X4 HIV-1 strains, chemically synthesized peptide", "result": 15.8, "unit": "µg/mL"},
      {"measurement": "HIV infection after pretreatment of viral target cells (not of virions)", "setting": "X4 HIV-1 strains; pretreatment of target cells", "result": "effective reduction"},
      {"measurement": "IC50", "setting": "X4 HIV-1 strains; read-out: mean 50% inhibitory concentration (IC50), infection by X4 HIV-1 strains, corresponding to 15.8 μg/ml", "result": 8.6, "unit": "µM"},
      {"measurement": "IC50", "setting": "X4 tropic HIV-1 NL4-3", "result": 8.63, "unit": "µM"},
      {"measurement": "Replication of wild-type HIV-1 NL4-3 in PBMCs", "setting": "[1]", "result": "markedly suppressed"},
      {"measurement": "cytotoxic effects", "setting": "[2]", "result": "did not display cytotoxic effects"},
      {"measurement": "DC50", "setting": "CXCR4", "result": "8 ± 3", "unit": "µM"},
      {"measurement": "CXCL12-induced migration of CD34+ human stem cells", "setting": "CD34+ human stem cells", "result": "suppressed"},
      {"measurement": "tumor cell invasion in vitro", "setting": "DU145 cells", "result": "prevented"},
      {"measurement": "effects against Candida albicans", "setting": "Candida albicans", "result": "only modest effects"}
    ]}
  ]
}
